Columns and labels:
Abca4^−/−Rdh8^−/− mice [1] = experiment: Light-induced acute retinal degeneration in Abca4−/−Rdh8−/− mice (OCT, 11-cis-retinal, ERG); type: in vivo; settings: 2 mg; dark 24 h, then 10,000 lux 1 h
Abca4^−/−Rdh8^−/− mice [2] = experiment: as above; type: in vivo; settings: for OCT imaging of the retina: 3 d after bleaching; for average ONL thickness: OCT 3 d after bleaching
Method: Abca4^−/−Rdh8^−/− double knockout mice were generated as previously described. Mice were housed in the animal facility at the School of Medicine, Case Western Reserve University, where they were maintained under either complete darkness or in a 12-h light (˜300 lux) and 12-h dark cycle. All tested primary amines were suspended in 100 μl of soybean oil with less than 10% (v/v) DMSO and were administered by oral gavage with a 22-gauge feeding needle. Experimental manipulations in the dark were done under dim red light transmitted through a Kodak No. 1 safelight filter (transmittance >560 nm). All animal procedures and experiments were approved by the Case Western Reserve University Animal Care Committees and conformed to recommendations of the American Veterinary Medical Association Panel on Euthanasia and the Association of Research for Vision and Ophthalmology.
After dark adaptation for 24 h, 4-week-old male or female Abca4^−/−Rdh8^−/− mice with pupils dilated by 1% tropicamide were exposed to fluorescent light (10,000 lx; 150 W spiral lamp, Commercial Electric) for 1 h in a white paper bucket (Papersmith), and then kept in the dark for an additional 3 d. Development of retinal degeneration was then examined by ultra-high resolution spectral-domain OCT (SDOCT; Bioptigen) and ERGs as previously described.
Then animals were euthanized and their eyes were collected and homogenized in 10 mM sodium phosphate buffer, pH 7.4, containing 50% methanol (v/v) and 40 mM hydroxylamine. The resulting mixture was extracted with 4 ml of hexanes. Extracts were dried in vacuo, reconstituted in 300 μl of hexanes and 100 μl of the extract was injected into an HPLC for analysis with 10% (v/v) ethyl acetate in hexanes.
For practical reasons, only eight of these leading compounds (QEA-B-001-NH2, B-002-NH2, C-001-NH2, C-003-NH2, C006-NH2, E-002-NH2, TEA-B-002-NH2, and C00-2-NH2) along with retinylamine as a control were selected for further testing in Abca4^−/−Rdh8^−/− mice, an animal model for light-induced retinal degeneration (Table 2). Additionally, two novel amines with moderate inhibition of RPE65 (QEA-A-006-NH2 and QEA-B-003-NI 12) and one with strong inhibition (QEA-A-005-NH2) were added to the first test group for comparison. Mice were gavaged with 1 mg of a test compound and then kept in the dark for 24 h prior to being exposed to bright light (˜10,000 lux) for 1 h. Retinal damage was assessed with OCT that measured the thickness of the outer nuclear layer and by quantification of tissue 11-cis retinal levels. An example is shown for imaging results in FIG. 4A and for 11-cis-retinal quantification in FIG. 4B. Additionally, extracts of livers obtained from treated mice were analyzed by HPLC to estimate the amounts of corresponding amides (FIG. 4C).
Once the time course of retinylamine's inhibitory effect was established, we investigated the correlation between the level of inhibition and the protective effect on the retina. Four week old Abca4^−/−Rdh8^−/− mice were gavaged with 0.1, 0.2, and 0.5 mg of retinylamine, respectively, and kept in the dark for 24 h. Mice then were bleached with 10,000 lux bright light for 1 h. Measured as described above, the recovery of visual chromophore was inhibited by about 40%, 80%, and 95%, respectively by these tested drug doses (FIGS. 5B and 5C). Bleached mice were kept in the dark for 3 d, and then imaged by OCT (FIGS. 6A and 6B). […] The average ONL thickness in the latter group of mice was 51.1±5.8 μm, well within the range of healthy retinas. […] Their average ONL thickness was 34.4±17.4 μm. […] In an equivalent experiment, mice were kept in the dark for 7 days prior to quantification of visual chromophore levels. (Amounts of 11-cis-retinal reflect the concentration of rhodopsin and thus can be used to verify the health of photoreceptor cells).

WT mice = experiment: Visual chromophore recovery assay (inhibition of the visual cycle in vivo); settings: for inhibition of the recovery of visual chromophore: 24 h after gavage; for recovery of 11-cis-retinal in the eye, of the pre-bleached level: at 6 h after bleaching
[3] = 0.1 mg, dark 7 days after bleaching
[4] = 0.2 mg, dark 7 days after bleaching

Structure (SMILES): CC1=C(/C=C/C(C)=C/C=C/C(C)=C/CN)C(C)(C)CCC1 [QEA-A-001-NH2, retinylamine]
- protection of ONL (averaged ONL thickness by OCT) (Abca4^−/−Rdh8^−/− mice [1]): protected
- protection against retinal degeneration (Abca4^−/−Rdh8^−/− mice [2]; 0.1 mg dose, bright light exposure): failed to protect
- OCT imaging of the retina (Abca4^−/−Rdh8^−/− mice [2]; 0.1 mg): severe retinal degeneration
- 11-cis-retinal levels (Abca4^−/−Rdh8^−/− mice [2]; [3]): 323±48 pmol/eye
- ERG responses (Abca4^−/−Rdh8^−/− mice [2]; [3]): attenuated ERG responses
- OCT imaging of the retina (Abca4^−/−Rdh8^−/− mice [2]; 0.2 mg): partially protected
- average ONL thickness (Abca4^−/−Rdh8^−/− mice [2]; 0.2 mg): 34.4±17.4 μm
- 11-cis-retinal levels (Abca4^−/−Rdh8^−/− mice [2]; [4]): 445±37 pmol/eye
- ERG scotopic a wave responses (Abca4^−/−Rdh8^−/− mice [2]; [4]): same ERG scotopic a wave responses as unbleached control mice
- OCT imaging of the retina (Abca4^−/−Rdh8^−/− mice [2]; 0.5 mg): clear intact ONL image
- average ONL thickness (Abca4^−/−Rdh8^−/− mice [2]; 0.5 mg): 51.1±5.8 μm
- ERG scotopic a wave responses (Abca4^−/−Rdh8^−/− mice [2]; 0.5 mg, dark 7 days after bleaching): same ERG scotopic a wave responses as unbleached control mice
- inhibition of the recovery of visual chromophore (WT mice; 0.1 mg): about 40%
- inhibition of the recovery of visual chromophore (WT mice; 0.2 mg): ~80%
- recovered 11-cis-retinal (WT mice; 0.2 mg, day 3 after administration): 61±2.2%
- inhibitory effect on 11-cis-retinal regeneration (WT mice; 0.2 mg, day 7): nearly disappeared
- recovery of 11-cis-retinal in the eye, of the pre-bleached level (WT mice; 0.2 mg, light 2 h after administration): 50±13%
- recovery of 11-cis-retinal in the eye, of the pre-bleached level (WT mice; 0.2 mg, light 24 h after administration): 22±5.0%
- inhibition of the recovery of visual chromophore (WT mice; 0.5 mg): ~95%
- recovery of 11-cis-retinal (WT mice; 0.5 mg, 7 days after administration): 56±9.1%
- time point with the strongest inhibition of the retinoid cycle (WT mice; 0.1 to 0.5 mg, gavage 2 h to 7 days before light): 24 h
- duration of inhibition of the retinoid cycle (WT mice; gavage 2 h to 7 days before light, 11-cis-retinal 6 h after bleaching): more than 7 days

Structure (SMILES): CC(/C=C/C=C(/C=C/C1=CCCCC1)C(C)(C)C)=C\CN [QEA-B-001-NH2]
- prevention of light-induced retinal degeneration (Abca4^−/−Rdh8^−/− mice [2]; gavaged with 1 mg, dark 24 h, ~10,000 lux 1 h, OCT): inability to prevent

Source: patent US10363231B2, “Compounds and methods of treating ocular disorders” (CASE WESTERN RESERVE UNIVERSITY, priority 2014, dated 2019)
